Experimental findings from US9700499B2, “Antimicrobial compositions” (GIVAUDAN SA, priority 2005, dated 2017) are described below.

The structures appear in SMILES notation.

Experiment [1] relates to Aspergillus niger ATCC 16404 spores. Kind of experiment: Sporicidal effect of test compounds and preservatives in a cosmetic cream. The experiment is classed as cell-based. Conditions: for Enhancing effect in the cosmetic cream in presence of phenoxyethanol: 0.2% test compound with phenoxyethanol. How it is done:
A cosmetic cream (pH 5.5) for application to the human skin is formulated as follows (in % w/w): […]
Glyceryl-monostearate, Sweet almond oil, Cetyl-stearyl-alcohol and Glyceryl dilaurate are melted at 80° C. Xanthan gum is dispersed into glycerine. Arginine is dissolved in water and heated to 75° C. The Xanthan gum-glycerin suspension is added to the heated water phase, the heated oil phase is added and the suspension is stirred at 300 rpm for 10 min whilst being cooled down slowly. Finally, a homogeneous emulsion is made with a high speed homogenizer at 5000 rpm.
Test samples of cream contain different amounts of preservatives and/or preservative enhancer. The preservative and preservative enhancer is added to an aliquot of 10 g of the cream in 50 ml tubes to a concentration (w/w) of 0.1-0.5% as shown in the table below. After addition of the preservative/preservative enhancer, the cream is thoroughly mixed to achieve a homogeneous distribution.
After 1-3 days of equilibration of the cream (storage at room temperature to achieve a homogenous partitioning of compounds between oil and water phase), to each sample 100 μl of a spore suspension of Aspergillus niger ATCC 16404 containing 3×10^7 spores/ml (prepared as described in example 1) is added. After regular test intervals, samples of 1 g cream are removed and added to 20 ml of a neutralizer solution containing 0.2% lecithin, 2% Tween 80 and 0.5% NaCl. These dilutions are vigorously shaken for 10 min until the cream is dissolved, and then aliquots of this solution are spread plated on potato dextrose agar containing 0.2% Tween 80. After 48 h to 72 h the number of surviving colony forming units (and therefore surviving spores) are counted.
The sporidical effect in cream (prepared as described in example 2) is compared when using the test compounds alone or in combination with phenoxyethanol, benzyl alcohol or 2-Phenylethanol.
The experiments described in example 2-4 are performed with varying concentrations of test compound and preservative as indicated in Table 5.

The test system is the same in experiment [2]. Put plainly: Sporicidal effect of test compounds in water. The experiment is classed as cell-based. The note with it: for Reduction factor / Spores/ml: 0.1% test compound in water; for Reduction factor: after 7 days, count of negative control divided by count of test compound; for Spores/ml: spore count after 7 days; for Sporicidal effect (reduction of spore counts) in water: test compound alone in water at 0.1%. The method, then:
Aspergillus niger ATCC 16404 spores are added to water to obtain a density of 3×10^5 spores/ml. In order to prepare the spores, the test strain is grown for 5 days on potato dextrose agar at room temperature. The spores are harvested with a solution containing 0.1% Tween 80, peptone 0.1% and NaCl 0.85% and the spore concentration is adjusted to the density indicated above.
Test compounds are dissolved in dipropyleneglycol to a concentration of 20%.
These stock solutions are added to 10 ml aliquots of the spore suspension to obtain a final concentration of the test compounds of 0.1%. The sporicidal effect is shown by a reduction of spore counts after 7 days.
The reduction factor is determined as follows. Aliquots of the above prepared suspension of microorganisms (here: spore suspension prepared as described above) are plated on a suitable agar medium (see above) and the developing colonies are counted both for samples with test compound and for a negative probe (water). The count of the negative control is divided by the count of the test compound and thereby the reduction factor is determined. A negative control (water) accordingly has a reduction factor of 1 (no effect on the microorganism).

Setting [3] is: test compound (0.1% where given) with Phenoxyethanol 0.5% (Table 3).
Setting [4] is: test compound (0.1% where given) with Phenoxyethanol 0.5%, 7 d (Table 3).
Where [5] appears, read: test compound alone (0.1% where given), no preservative (Table 3).
Setting [6] is: test compound alone (0.1% where given), no preservative, 7 d (Table 3).
The mark [7] stands for this setting: 0.1% test compound and 0.5% phenoxyethanol (Table 2).
Where [8] appears, read: 0.1% test compound and 0.5% phenoxyethanol, 7 d (Table 2).
[9] abbreviates: 0.2% test compound and 0.5% phenoxyethanol (Table 2).
[10] abbreviates: 0.2% test compound and 0.5% phenoxyethanol, 7 d (Table 2).

For `OCCc1ccccc1` [2-Phenylethanol, reference compound], the “Spores/ml after 7 d” value in experiment [1] (preservative 0.5% alone, no test compound (Table 3)) is listed as 4.2 × 10^4 Spores/ml. Further, the Reduction factor in experiment [1] (preservative 0.5% alone, no test compound, 7 d (Table 3)) worked out at 2.5.

In the case of `O=Cc1cc(O)cc(O)c1` [3,5-dihydroxybenzaldehyde], the “Spores/ml after 7 d” value in experiment [1] (setting [3]) is less than 100 Spores/ml; in experiment [1] (setting [5]), 1 × 10^4 Spores/ml. The Reduction factor is greater than 1040 in experiment [1] (setting [4]) and 10 in experiment [1] (setting [6]).

As for `O=Cc1cccc(O)c1` [3-hydroxybenzaldehyde], the “Spores/ml after 7 d” value in experiment [1] (setting [7]) was less than 100 Spores/ml. In addition, the Reduction factor in experiment [1] (setting [8]) was greater than 737.

As to `COc1cccc(C=O)c1` [3-methoxybenzaldehyde], in experiment [1] (setting [7]), the “Spores/ml after 7 d” value is given as less than 100 Spores/ml. The Reduction factor in experiment [1] (setting [8]) is greater than 737.

On to `COc1cc(O)ccc1C=O` [4-hydroxy-2-methoxy-benzaldehyde], for which the entries for the “Spores/ml after 7 d” value in experiment [1] (setting [3]) and in experiment [1] (setting [5]) were less than 100 Spores/ml and 2.08 × 10^4 Spores/ml, respectively. Moreover, the Reduction factor in experiment [1] (setting [4]) is recorded as greater than 1040; in experiment [1] (setting [6]) it was 5.

Consider `COc1ccc(C=O)cc1` [4-methoxybenzaldehyde], for which the “Spores/ml after 7 d” value in experiment [1] (setting [7]) is less than 100 Spores/ml; in experiment [1] (setting [9]), less than 100 Spores/ml; in experiment [1] (setting [3]), less than 100 Spores/ml; in experiment [1] (setting [5]), 2.8 × 10^3 Spores/ml. For the same compound, the Reduction factor in experiment [1] (setting [8]) was greater than 737; in experiment [1] (setting [10]) it was greater than 737; in experiment [1] (setting [4]), greater than 1040; in experiment [1] (setting [6]), 37.1; in experiment [2], 5. Further, the “Enhancing activity in cream” value in experiment [1] (0.1% test compound with phenoxyethanol, complete killing of spores within 7 days) was “excellent enhancing activity”. In addition, the Spores/ml in experiment [2] is recorded as 4.68 × 10^4 Spores/ml. In addition, the “Sporicidal effect (reduction of spore counts) in water” value in experiment [2] was “No significant reduction of spore counts”; in experiment [2] (listed as 4-methoxy-benzaldehyde), “no significant sporicidal effect”.

For the compound `Cc1ccc(C=O)cc1` [4-methylbenzaldehyde], in experiment [1] (setting [7]), the “Spores/ml after 7 d” value was less than 100 Spores/ml. Moreover, the Reduction factor in experiment [1] (setting [8]) is listed as greater than 737.

Regarding `C=CCCCCCCCCO` [9-decen-1-ol, reference compound], the “Spores/ml after 7 d” value in experiment [1] (setting [9]) was 2.44 × 10^4 Spores/ml. Besides, the Reduction factor in experiment [1] (setting [10]) came to 2.1. Moreover, the “Enhancing effect in the cosmetic cream in presence of phenoxyethanol” value in experiment [1] is “do not show an enhancing effect”. Besides, in experiment [2], the Reduction factor is 23, the Spores/ml was 1.1 × 10^4 Spores/ml and the “Sporicidal effect (reduction of spore counts) in water” value is listed as “significant sporicidal effect”.

For the compound `O=Cc1ccccc1` [Benzaldehyde, reference compound], in experiment [1] (setting [7]), the “Spores/ml after 7 d” value is less than 100 Spores/ml. Further, the Reduction factor in experiment [1] (setting [8]) is reported as greater than 737.

Take `CC(C)c1ccc(CO)cc1` [Cuminic alcohol, reference compound]: in experiment [2], the Reduction factor was less than 2 and the Spores/ml is recorded as >1.2 × 10^5 Spores/ml.

`O=Cc1ccc2c(c1)OCO2` [Heliotropine]: in experiment [1] (setting [7]), the “Spores/ml after 7 d” value is listed as less than 100 Spores/ml. Also, the Reduction factor in experiment [1] (setting [8]) was greater than 737.

On to `CC(CC=O)CCc1ccccc1` (centres unmarked) [Mefranal, 3-methyl-5-phenylpentanal, reference compound], for which the “Spores/ml after 7 d” value in experiment [1] (setting [9]) was 3.12 × 10^4 Spores/ml. Further, the Reduction factor in experiment [1] (setting [10]) amounted to 1.6. In experiment [1], the “Enhancing effect in the cosmetic cream in presence of phenoxyethanol” value is reported as “do not show an enhancing effect”. In addition, in experiment [2], the Reduction factor came out at 63, the Spores/ml is given as 4 × 10^3 Spores/ml and the “Sporicidal effect (reduction of spore counts) in water” value is recorded as “significant sporicidal effect”.

As for `COc1cc(C=O)ccc1O` [Vanilline], the “Spores/ml after 7 d” value in experiment [1] (setting [7]) is listed as less than 100 Spores/ml; in experiment [1] (setting [3]) it was less than 100 Spores/ml; in experiment [1] (setting [5]) it was 1 × 10^4 Spores/ml. The Reduction factor in experiment [1] (setting [8]) is recorded as greater than 737; in experiment [1] (setting [4]), greater than 1040; in experiment [1] (setting [6]), 10.4.
